According to patent US9890194B2, “Epitope and its use” (W[…] BADAŃEIT+ SP. Z O.O., priority 2012, dated 2018):

Key:
[1] = tested on: antibodies present in human umbilical blood sera; test: Immunological activity of truncated and substituted peptides derived from RYDERY with umbilical serum; assay type: binding; conditions: FIG. 4
From the text: Unexpectedly it was shown that the immunological activity of the RYDERY peptide (SEQ ID NO: 2) is not affected by the removal of amino-acids in positions P+1 and P+2, nor in P−1, […]. The removal of amino-acids in positions P1 or P6, and in the subsequent positions (P2, P3 or P5, P4) caused a complete loss of activity. Likewise, a loss of immunological activity was caused by an exchange of residues at positions P1, P2 and P5. The latter amino-acids must remain unchanged in the final form of the peptide vaccine. Positions P3, P4 and P6 are less restrictive. In this case native amino-acids may be substituted by a series of other residues without any significant loss of immunological activity (FIG. 4). This property of the epitope facilitates the synthesis of a peptide less susceptible to enzymatic hydrolysis, and a higher antigenicity.
Furthermore, it was unexpectedly shown that an alteration of amino-acid D or E for Q yields an increased reactivity with umbilical serum (FIG. 5).

[2] = tested on: antibodies present in umbilical blood sera 1H-9H (IgG); test: ELISA of peptides synthesized on HPM-pins with a mixture of 9 umbilical blood sera (1H-9H); assay type: binding, human; conditions: mixture of umbilical sera 1H-9H; 29 overlapping twelve amino-acid peptides of Table 1 on HPM-pins
From the text: Peptides representing the bioinformatically predicted regions were synthesized using an NCP kit with 96 hydroxypropylmethacrylate (HPM) pins (MIMOTOPES, Clayton, Victoria, Australia) according to the manufacturer's specifications (Carter, J.M. (1994) An epitope mapping of a protein using the Geysen (PEPSCAN) procedure. Methods Mol Biol 36: 207-223). As the sixth, control, peptide we synthesised a fragment corresponding to the N-terminal region of ompC (AEVYNKDGNKLD-pin (SEQ ID NO: 12)).
After the completed synthesis, we performed initial reactivity tests for the individual peptides, using a standard ELISA test. The ELISA was performed in a mixture of 9 different umbilical blood sera (1H-9H) according to the following scheme: • a. Pin equilibration in TBS-T. • b. Blocking of free sites on the pins using 1% BSA in TBS-T • c. Incubation with umbilical sera at a dilution of 1:500 in a solution of 1% BSA in TBS-T buffer • d. Rinsing with TBS-T buffer • e. Incubation with secondary antibodies, conjugated Anti-Human IgG (Fc)-AP (Promega) • f. Rinsing with TBS-T • g. Reaction of AP with the substrate pNPP (p-Nitrophenyl Phosphate, Sigma) and absorbance measurement at 405 nm • h. Dissociation of proteins/antibodies from peptides synthesized on HPM-pins. […]

Row | Substance | immunological activity of peptides derived from RYDERY (removal or exchange of residues) [1] | binding of antibodies in umbilical sera by loop V peptides [2]
1 | YDERY | no activity | –
2 | RYDERY | – | shortest active portion of the epitope
